Experimental findings from paper PMC10333392 (Molecular Imaging and Biology, 2023) are described below.

“Also recorded” adds a separate entry of the source.

In general, IC50 refers to the concentration at which inhibition is half-maximal.

Assay [1] deals with T1, NMDA receptor glycine site (Rattus norvegicus, UniProt P35439).
T1 construct: from tissue; host or cells: Wistar rat forebrain synaptic membranes
The assay is described as follows: [^3H]glycine competition binding, rat forebrain membranes. The following applies: radioligand [^3H]-glycine.

The target in assay [2] is T2, Dopaminergic receptor (D2) (Rattus norvegicus, UniProt P61169).
T2 construct: from tissue; host or cells: Wistar rat brain synaptic membranes (striatum according to the earlier reading)
T2 sequence (P61169 whole entry): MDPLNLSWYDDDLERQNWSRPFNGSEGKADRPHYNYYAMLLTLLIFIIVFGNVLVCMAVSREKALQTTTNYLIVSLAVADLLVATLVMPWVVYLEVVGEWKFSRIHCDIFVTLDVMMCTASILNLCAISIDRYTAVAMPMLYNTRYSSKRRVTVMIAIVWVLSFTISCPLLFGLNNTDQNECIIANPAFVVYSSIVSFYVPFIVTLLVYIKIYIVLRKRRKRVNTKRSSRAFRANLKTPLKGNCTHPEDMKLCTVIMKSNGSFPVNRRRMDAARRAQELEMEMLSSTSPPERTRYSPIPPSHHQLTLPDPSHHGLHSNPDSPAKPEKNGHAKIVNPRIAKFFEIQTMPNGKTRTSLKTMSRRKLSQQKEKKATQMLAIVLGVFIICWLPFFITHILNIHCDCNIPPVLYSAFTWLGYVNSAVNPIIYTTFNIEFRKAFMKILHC
The assay is described as follows: [^3H]raclopride competition binding, rat striatum membranes. The following applies: radioligand [^3H]-raclopride.

In a further assay the target is Kaïnate receptor. In kind it is binding, rat.
For a further assay, the target named is AMPA receptor. Put plainly: [^3H]AMPA competition binding, rat forebrain membranes. As to conditions: radioligand [^3H]-AMPA.
For assay [3], the target named is T3, Dopaminergic receptor (D1) (Rattus norvegicus, UniProt P18901).
T3 construct: from tissue; host or cells: Wistar rat brain synaptic membranes (striatum according to the earlier reading)
T3 sequence (P18901 whole entry): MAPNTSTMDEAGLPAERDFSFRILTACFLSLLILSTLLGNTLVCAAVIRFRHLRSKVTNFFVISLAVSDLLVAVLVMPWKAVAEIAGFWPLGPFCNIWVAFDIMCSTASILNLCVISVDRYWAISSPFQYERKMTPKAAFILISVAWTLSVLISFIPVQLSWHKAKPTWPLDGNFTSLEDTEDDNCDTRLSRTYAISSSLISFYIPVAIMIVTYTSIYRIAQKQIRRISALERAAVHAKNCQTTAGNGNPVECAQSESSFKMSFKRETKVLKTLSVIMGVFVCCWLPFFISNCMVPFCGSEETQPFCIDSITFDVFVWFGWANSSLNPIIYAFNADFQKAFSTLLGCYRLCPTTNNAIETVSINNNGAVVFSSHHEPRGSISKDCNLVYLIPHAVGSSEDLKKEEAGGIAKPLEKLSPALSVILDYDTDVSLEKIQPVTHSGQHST
The assay is described as follows: [^3H]SCH23390 competition binding, rat striatum membranes. The following applies: radioligand [^3H]-SCH23390.

A further assay has as its target T4, NMDA PCP site (Rattus norvegicus, UniProt P35439).
T4 construct: from tissue; host or cells: Wistar rat hippocampus, frontal cortex or forebrain synaptic membranes
Put plainly: [^3H]TCP radioligand competition binding on rat brain membranes. The following applies: for IC50: inhibition of [^3H]TCP binding. Background: In a radioligand displacement assay an active substance lowers the binding of a labelled ligand.

Where [4] appears, read: read-out: IC50 ± SEM ([^19F]FNM inhibition).

Regarding Fluoroethylnormemantine [[^19F]FNM], the “IC50 ± SEM ([^19F]FNM inhibition)” value is “did not displace; also recorded: No inhibition” in assay [1]; “did not displace” in assay [2]; “did not displace; also recorded: No inhibition” at Kaïnate receptor; “did not displace; also recorded: No inhibition” on AMPA receptor; “did not displace” in assay [3]. In addition, the half-maximal inhibitory concentration (IC50) in assay [2] (setting [4]) was over 1000 µM; in assay [3] (setting [4]), over 1000 µM; on NMDA PCP site (rat forebrain), 13 ± 8.9 µM; at NMDA PCP site (rat frontal cortex) it was 80.8 ± 15.1 µM; at NMDA PCP site (rat hippocampus) it was 52.9 ± 9.7 µM. Moreover, the “selectivity for the NMDA receptor ion-channel compared to the other targets examined” value on NMDA PCP site (in the forebrain) was “at least sevenfold”.
